Laboratory results as given in patent US20260226037A1, “MICROTUBULE TARGETING AGENTS” (ARIEL SCIENTIFIC INNOVATIONS LTD., priority 2022, published 2026).
Like-named read-outs stand apart in the source and are kept apart here.

Assays:
Format in all cases: cell-based
MES-SA/DX5 cells = assay: XTT cytotoxicity, MES-SA/DX5; conditions: for effectiveness in subline overexpressing PgP: MES-SA/DX5 vs MES-SA; for IC50: MES-SA/DX5, uterine sarcoma, P-gp overexpression; for IC50 ratio between resistant and non-resistant cells: MES-SA/DX5 / MES-SA
Experimental: (§1) The cytotoxic activity of the novel family was evaluated against various tumor cells, including myeloma cells, acute lymphoblastic leukemia cells, acute monocytic leukemia cells, chronic myelogenous leukemia cells, pancreatic cancer cells, breast cancer cells, uterine sarcoma cells, cervix adenocarcinoma cells, ovary cancer cells, melanoma cells, osteosarcoma cells, prostate cancer cells, lung cancer cells, neuroblastoma cells and colorectal adenocarcinoma cells by XTT assay.

A2780ADR cells = assay: XTT cytotoxicity, A2780ADR; conditions: for IC50 ratio between resistant and non-resistant cells: A2780ADR / A2780; for IC50: A2780ADR, ovarian carcinoma, resistant
Experimental: as §1

MCF7 cells = assay: XTT cytotoxicity, MCF7; conditions: MCF7, breast adenocarcinoma, non-resistant
Experimental: as §1

N6/ADR cells = assay: XTT cytotoxicity, N6/ADR; conditions: for IC50 ratio between resistant and non-resistant cells: N6/ADR / NALM6; for IC50: N6/ADR, acute lymphoblastic leukemia, P-gp overexpression, read-out: IC50
Experimental: as §1
(§2) Most tubulin-binding anticancer drugs currently used in the clinic are substrates for Pgp effux pump. […] The inventors tested the viability of NALM6 acute lymphoblastic leukemia cell line (ALL) and its corresponding doxorubicin resistant N6/ADR cell line that overexpress Pgp glycoprotein and has cross-resistance to vincristine.

MES-SA cells = assay: XTT cytotoxicity, MES-SA; conditions: poorly differentiated uterine sarcoma, non-resistant
Experimental: as §1

NCI-H69 VCR/R cells = assay: XTT cytotoxicity, NCI-H69 VCR/R; conditions: for IC50: NCI-H69 VCR/R, vincristine resistant; for IC50 ratio between resistant and non-resistant cells: NCI-H69 VCR/R / NCI-H69
Experimental: as §1

A2780 cells = assay: XTT cytotoxicity, A2780; conditions: A2780, ovarian carcinoma, non-resistant
Experimental: as §1

NALM6 cells = assay: XTT cytotoxicity, NALM6; conditions: NALM6, acute lymphoblastic leukemia, non-resistant, read-out: IC50
Experimental: as §1, §2

MCF7-VP cells = assay: XTT cytotoxicity, MCF7-VP; conditions: for IC50: MCF7-VP, breast adenocarcinoma, MRP overexpression; for IC50 ratio between resistant and non-resistant cells: MCF7-VP / MCF7
Experimental: as §1

NCI-H69 cells = assay: XTT cytotoxicity, NCI-H69; conditions: NCI-H69, small cell lung carcinoma, non-resistant
Experimental: as §1

RPMI-DOX40 cells = assay: XTT cytotoxicity, RPMI-DOX40; conditions: for IC50: RPMI-DOX40, multiple myeloma, P-gp overexpression, read-out: IC50; for IC50 ratio between resistant and non-resistant cells: RPMI-DOX40 / RPMI 8226
Experimental: as §1

MM1.R cells = assay: XTT cytotoxicity, MM1.R; conditions: for IC50: MM1.R, multiple myeloma, dexamethasone resistant, read-out: IC50; for IC50 ratio between resistant and non-resistant cells: MM1.R / MM1.S
Experimental: as §1

RPMI-MR20 cells = assay: XTT cytotoxicity, RPMI-MR20; conditions: for IC50: RPMI-MR20, mitoxantrone resistant, read-out: IC50; for IC50 ratio between resistant and non-resistant cells: RPMI-MR20 / RPMI 8226
Experimental: as §1

[1] = test system: colchicine binding site on tubulin protein; assay: EBI competition assay, RPMI-8226 cells; conditions: RPMI-8226 living cells
RPMI 8226 cells = assay: XTT cytotoxicity, RPMI 8226; conditions: RPMI 8226, multiple myeloma, non-resistant, read-out: IC50
Experimental: as §1

MM1.S cells = assay: XTT cytotoxicity, MM1.S; conditions: multiple myeloma, non-resistant, read-out: IC50
Experimental: as §1

RPMI-LR5 cells = assay: XTT cytotoxicity, RPMI-LR5; conditions: for IC50: RPMI-LR5, multiple myeloma, melphalan resistant, read-out: IC50; for IC50 ratio between resistant and non-resistant cells: RPMI-LR5 / RPMI 8226
Experimental: as §1

RPMI8226 cells = assay: Cell cycle distribution by flow cytometry; conditions: 6 hours; IC50, IC50x2.5 and IC50x5 concentrations
Experimental: Cell cycle arrest is a shared consequence of MTAs treatment. The effects of cell cycle distribution were determined in RPMI8226 cells treated for 6 and 18 hours with a range of concentrations of the molecules. The cells were stained with propidium iodide and cell cycle distribution was measured using a cytoFLEX flow cytometer.

COc1cc2c(c(OC)c1OC)-c1ccc(OC)c(=O)cc1[C@@H](NC(C)=O)CC2 [Colchicine]
effectiveness in subline overexpressing PgP (MES-SA/DX5 cells): less effective in the subline overexpressing PgP

CC(=O)O[C@H]1C(=O)[C@@]2(C)[C@H]([C@H](OC(=O)c3ccccc3)[C@]3(O)C[C@H](OC(=O)[C@H](O)[C@@H](NC(=O)c4ccccc4)c4ccccc4)C(C)=C1C3(C)C)[C@]1(OC(C)=O)CO[C@@H]1C[C@@H]2O [Paqlitaxel, paclitaxel]
IC50 ratio between resistant and non-resistant cells (A2780ADR cells): 61.538
IC50 (A2780ADR cells; A2780 ADR): 400 nM
IC50 (MCF7 cells; Homo sapiens): 136 nM
IC50 ratio between resistant and non-resistant cells (N6/ADR cells): 2.857
sensitivity to Pgp glycoprotein overexpression (N6/ADR cells; N6/ADR vs NALM6 dose response): sensitive to PgP
IC50 (N6/ADR cells): 24 nM
IC50 (MES-SA cells; Homo sapiens): 110 nM
IC50 (NCI-H69 VCR/R cells; Homo sapiens): > 1000 nM
IC50 ratio between resistant and non-resistant cells (NCI-H69 VCR/R cells): >16.949
IC50 (MES-SA/DX5 cells; Homo sapiens): > 1000 nM
IC50 ratio between resistant and non-resistant cells (MES-SA/DX5 cells): >9.009
effectiveness in subline overexpressing PgP (MES-SA/DX5 cells): less effective in the subline overexpressing PgP
IC50 (A2780 cells; Homo sapiens): 6.5 nM
IC50 (NALM6 cells; Homo sapiens, NALM-6): 8.4 nM
IC50 (MCF7-VP cells; Homo sapiens): 74 nM
IC50 ratio between resistant and non-resistant cells (MCF7-VP cells): 0.544
IC50 (NCI-H69 cells; Homo sapiens): 59 nM

CCCCCOC(=O)c1[nH]c2c(c1C)C(=O)CC(c1ccco1)C2 (stereo not shown) [SMS001, reference compound]
IC50 (MCF7 cells; Homo sapiens): 350 nM
IC50 (RPMI-DOX40 cells): 34 nM
IC50 ratio between resistant and non-resistant cells (RPMI-DOX40 cells): 0.850
IC50 ratio between resistant and non-resistant cells (N6/ADR cells): 1.000
IC50 (N6/ADR cells): 37 nM
IC50 (MM1.R cells; MM.1R): 69 nM
IC50 (MES-SA cells; Homo sapiens): 203 nM
IC50 (MES-SA/DX5 cells; Homo sapiens): 49 nM
IC50 ratio between resistant and non-resistant cells (MES-SA/DX5 cells): 0.241
IC50 (NALM6 cells; Homo sapiens, NALM-6): 37 nM
IC50 (RPMI-MR20 cells): 35 nM
IC50 ratio between resistant and non-resistant cells (RPMI-MR20 cells): 0.875
prevention of covalent binding of EBI to the colchicine binding site [1]: prevented the covalent binding of EBI to the colchicine binding site
IC50 (RPMI 8226 cells; Homo sapiens): 40 nM
IC50 (MCF7-VP cells; Homo sapiens): 469 nM
IC50 ratio between resistant and non-resistant cells (MCF7-VP cells): 1.340
IC50 (MM1.S cells; Homo sapiens): 63 nM
IC50 (RPMI-LR5 cells): 29 nM
IC50 ratio between resistant and non-resistant cells (RPMI-LR5 cells): 0.725

CCCCCOC(=O)c1[nH]c2c(c1C)C(=O)CN(c1ccccc1)C2 [SMS078, Pentyl 3-methyl-4-oxo-6-phenyl-4,5,6,7-tetrahydro-1H-pyrrolo[2,3-c]pyridine-2-carboxylate]
IC50 (RPMI-DOX40 cells): 489 nM
IC50 ratio between resistant and non-resistant cells (RPMI-DOX40 cells): 2.329
IC50 ratio between resistant and non-resistant cells (N6/ADR cells): 0.927
IC50 (N6/ADR cells): 165 nM
IC50 (NALM6 cells; Homo sapiens, NALM-6): 178 nM
IC50 (RPMI 8226 cells; Homo sapiens): 210 nM

Cc1c(C(=O)OCCCCN)[nH]c2c1C(=O)CC(c1ncco1)C2.Cl.Cl (stereo not shown) [SMS088, 4-ami0butyl-3-methyl-6-(oxazol-2-yl)-4-oxo-4,5,6,7-tetrahydro-1H-indole-2-carboxylate dihydrogen chloride]
IC50 (MCF7 cells): 5840 nM
IC50 (RPMI-DOX40 cells): 1350 nM
IC50 ratio between resistant and non-resistant cells (RPMI-DOX40 cells): 0.839
IC50 ratio between resistant and non-resistant cells (N6/ADR cells): 1.107
IC50 (N6/ADR cells): 62 nM
IC50 ratio between resistant and non-resistant cells (MM1.R cells): 0.934
IC50 (MM1.R cells): 1020 nM
IC50 (MES-SA cells): 2200 nM
cell cycle arrest (RPMI8226 cells): cell cycle arrest in G2M phase
IC50 (MES-SA/DX5 cells): 5260 nM
IC50 ratio between resistant and non-resistant cells (MES-SA/DX5 cells): 2.391
IC50 (NALM6 cells): 56 nM
IC50 (RPMI-MR20 cells): > 1800 nM
IC50 ratio between resistant and non-resistant cells (RPMI-MR20 cells): >1.116
prevention of covalent binding of EBI to the colchicine binding site [1]: prevented the covalent binding of EBI to the colchicine binding site
IC50 (RPMI 8226 cells): 1610 nM
IC50 ratio between resistant and non-resistant cells (MCF7-VP cells): 1.251
IC50 (MCF7-VP cells): 7300 nM
IC50 (MM1.S cells): 1100 nM
IC50 (RPMI-LR5 cells): 1430 nM
IC50 ratio between resistant and non-resistant cells (RPMI-LR5 cells): 0.885

CCCCCOC(=O)c1[nH]c2c(c1C)C(=O)CC(c1nccs1)C2 (stereo not shown) [SMS213, pentyl-3-methyl-4-oxo-6-(thiazol-2-yl)-4,5,6,7-tetrahydro-1H-indole-2-carboxylate]
IC50 (MCF7 cells; Homo sapiens): 243 nM
IC50 (RPMI-DOX40 cells): 68 nM
IC50 ratio between resistant and non-resistant cells (RPMI-DOX40 cells): 0.739
IC50 ratio between resistant and non-resistant cells (N6/ADR cells): 1.019
IC50 (N6/ADR cells): 109 nM
IC50 ratio between resistant and non-resistant cells (MM1.R cells): 1.185
IC50 (MM1.R cells; MM.1R): 147 nM
IC50 (MES-SA cells; Homo sapiens): 120 nM
IC50 (MES-SA/DX5 cells; Homo sapiens): 139 nM
IC50 ratio between resistant and non-resistant cells (MES-SA/DX5 cells): 1.158
IC50 (NALM6 cells; Homo sapiens, NALM-6): 107 nM
IC50 (RPMI-MR20 cells): 79 nM
IC50 ratio between resistant and non-resistant cells (RPMI-MR20 cells): 0.859
IC50 (RPMI 8226 cells; Homo sapiens): 92 nM
IC50 (MCF7-VP cells; Homo sapiens): 513 nM
IC50 ratio between resistant and non-resistant cells (MCF7-VP cells): 2.114
IC50 (MM1.S cells; Homo sapiens): 124 nM
IC50 (RPMI-LR5 cells): 60 nM
IC50 ratio between resistant and non-resistant cells (RPMI-LR5 cells): 0.652

CCCOC(=O)c1[nH]c2c(c1C)C(O)CC(c1ncco1)C2 (stereo not shown) [SMS291, propyl-4-hydroxy-3-methyl-6-(oxazol-2-yl)-4,5,6,7-tetrahydro-1H-indole-2-carboxylate]
IC50 (RPMI-DOX40 cells): 531 nM
IC50 ratio between resistant and non-resistant cells (RPMI-DOX40 cells): 0.543
IC50 ratio between resistant and non-resistant cells (N6/ADR cells): 0.686
IC50 (N6/ADR cells): 350 nM
IC50 (NALM6 cells; Homo sapiens, NALM-6): 510 nM
prevention of covalent binding of EBI to the colchicine binding site [1]: did not prevent the covalent binding of EBI to the colchicine binding site
IC50 (RPMI 8226 cells; Homo sapiens): 978 nM

CCCOC(=O)c1[nH]c2c(c1C)C(=O)CN(c1ncco1)C2 [SMS294, Propyl 3-methyl-6-(oxazol-2-yl)-4-oxo-4,5,6,7-tetrahydro-1H-pyrrolo[2,3-c]pyridine-2-carboxylate]
IC50 (RPMI-DOX40 cells): 1060 nM
IC50 ratio between resistant and non-resistant cells (RPMI-DOX40 cells): 1.598
IC50 ratio between resistant and non-resistant cells (N6/ADR cells): 2.138
IC50 (N6/ADR cells): 1940 nM
IC50 (NALM6 cells; Homo sapiens, NALM-6): 907 nM
IC50 (RPMI 8226 cells; Homo sapiens): 666 nM

CCC1=C[C@@H]2CN(C1)Cc1c([nH]c3ccccc13)[C@@](C(=O)OC)(c1cc3c(cc1OC)N(C)[C@H]1[C@@](O)(C(=O)OC)[C@H](OC(C)=O)[C@]4(CC)C=CCN5CC[C@]31[C@@H]54)C2 [Vinorelbine]
IC50 ratio between resistant and non-resistant cells (A2780ADR cells): 300.000
IC50 (A2780ADR cells; A2780 ADR): 2700 nM
IC50 (MCF7 cells; Homo sapiens): 22 nM
IC50 (MES-SA cells; Homo sapiens): 64 nM
IC50 (NCI-H69 VCR/R cells; Homo sapiens): > 1000 nM
IC50 ratio between resistant and non-resistant cells (NCI-H69 VCR/R cells): >45.454
IC50 (MES-SA/DX5 cells; Homo sapiens): > 1000 nM
IC50 ratio between resistant and non-resistant cells (MES-SA/DX5 cells): >15.625
effectiveness in subline overexpressing PgP (MES-SA/DX5 cells): less effective in the subline overexpressing PgP
IC50 (A2780 cells; Homo sapiens): 9 nM
IC50 (MCF7-VP cells; Homo sapiens): 28 nM
IC50 ratio between resistant and non-resistant cells (MCF7-VP cells): 1.273
IC50 (NCI-H69 cells; Homo sapiens): 22 nM

Epothilone
IC50 ratio between resistant and non-resistant cells (A2780ADR cells): >370.370
IC50 (A2780ADR cells): > 1000 nM
IC50 (MCF7 cells): 220 nM
IC50 (MES-SA cells): 52 nM
IC50 ratio between resistant and non-resistant cells (NCI-H69 VCR/R cells): >11.364
IC50 (NCI-H69 VCR/R cells): > 1000 nM
IC50 (MES-SA/DX5 cells): 187 nM
IC50 ratio between resistant and non-resistant cells (MES-SA/DX5 cells): 3.613
IC50 (A2780 cells): 2.7 nM
IC50 ratio between resistant and non-resistant cells (MCF7-VP cells): 2.073
IC50 (MCF7-VP cells): 456 nM
IC50 (NCI-H69 cells): 88 nM
